{"source": "PubChem BioAssay AID1259407", "about": "(Chemical Carcinogenesis Research Information System (CCRIS), 2018)", "test_system": "CCRIS mutagenicity, Ames/micronucleus/aberration tests", "assay": "CCRIS mutagenicity studies", "key": {"[1]": {"details": "Test System: AMES SALMONELLA TYPHIMURIUM, Strain/Indicator: TA98, Metabolic Activation: NONE, Method: STANDARD PLATE"}, "[2]": {"details": "Test System: AMES SALMONELLA TYPHIMURIUM, Strain/Indicator: TA100, Metabolic Activation: NONE, Method: PREINCUBATION"}, "[3]": {"details": "Test System: AMES SALMONELLA TYPHIMURIUM, Strain/Indicator: TA100, Metabolic Activation: NONE, Method: STANDARD PLATE"}, "[4]": {"details": "Test System: MOUSE LYMPHOMA, Strain/Indicator: L5178Y (TK+/TK-), Metabolic Activation: NONE, Method: SUSPENSION/PLATE"}, "[5]": {"details": "Test System: MOUSE LYMPHOMA, Strain/Indicator: L5178Y (TK+/TK-), Metabolic Activation: RAT, LIVER, S-9, AROCLOR 1254, Method: SUSPENSION/PLATE"}, "[6]": {"details": "Test System: AMES SALMONELLA TYPHIMURIUM, Strain/Indicator: TA98, Metabolic Activation: NONE, Method: PREINCUBATION"}}, "note": "The source made the active and inactive calls. The rule behind the calls is not given here.", "data": [{"smiles": "NC(=O)/C(=C\\c1ccc([N+](=O)[O-])o1)c1ccco1", "values": [{"measurement": "mutagenic call", "setting": "[1]", "result": "active; positive"}, {"measurement": "mutagenic call", "setting": "Test System: AMES SALMONELLA TYPHIMURIUM, Strain/Indicator: TA98, Metabolic Activation: RAT, LIVER, S-9, KC500 OR PHENOBARBITAL, Method: LIQUID SUSPENSION", "result": "active; positive"}, {"measurement": "mutagenic call", "setting": "[2]", "result": "active; positive"}, {"measurement": "mutagenic call", "setting": "[3]", "result": "active; positive"}, {"measurement": "mutagenic call", "setting": "Test System: AMES SALMONELLA TYPHIMURIUM, Strain/Indicator: TA100, Metabolic Activation: RAT, LIVER, S-9, KC500 OR PHENOBARBITAL, Method: LIQUID SUSPENSION", "result": "active; positive"}, {"measurement": "mutagenic call", "setting": "Test System: AMES SALMONELLA TYPHIMURIUM, Strain/Indicator: YG7112, Metabolic Activation: NONE, Method: PREINCUBATION", "result": "active; positive"}, {"measurement": "mutagenic call", "setting": "Test System: AMES SALMONELLA TYPHIMURIUM, Strain/Indicator: YG7113, Metabolic Activation: NONE, Method: PREINCUBATION", "result": "active; positive"}, {"measurement": "mutagenic call", "setting": "Test System: AMES SALMONELLA TYPHIMURIUM, Strain/Indicator: YG7119, Metabolic Activation: NONE, Method: PREINCUBATION", "result": "active; positive"}, {"measurement": "mutagenic call", "setting": "Test System: Ames Salmonella typhimurium, Strain/Indicator: TA100, Metabolic Activation: None, Method: Preincubation", "result": "active; positive"}, {"measurement": "mutagenic call", "setting": "Test System: Ames Salmonella typhimurium, Strain/Indicator: TA1975P, Metabolic Activation: None, Method: Preincubation", "result": "active; positive (at higher doses)"}, {"measurement": "mutagenic call", "setting": "Test System: CHINESE HAMSTER V-79, Strain/Indicator: V-79/8-AZAGUANINE, Metabolic Activation: NONE, Method: STANDARD PLATE", "result": "active; positive"}, {"measurement": "mutagenic call", "setting": "Test System: E. COLI, Strain/Indicator: WP2, Metabolic Activation: NONE, Method: PREINCUBATION", "result": "active; positive"}, {"measurement": "mutagenic call", "setting": "Test System: E. COLI, Strain/Indicator: WP2 UVRA, Metabolic Activation: NONE, Method: SPOT", "result": "active; positive"}, {"measurement": "mutagenic call", "setting": "[4]", "result": "active; positive"}, {"measurement": "mutagenic call", "setting": "[5]", "result": "active; positive"}]}, {"smiles": "CCSc1cc(Cc2ccc(N)c(SCC)c2)ccc1N", "values": [{"measurement": "mutagenic call", "setting": "[6]", "result": "inactive; negative"}, {"measurement": "mutagenic call", "setting": "Test System: AMES SALMONELLA TYPHIMURIUM, Strain/Indicator: TA98, Metabolic Activation: RAT, LIVER, S-9, PCB, Method: PREINCUBATION", "result": "active; positive"}, {"measurement": "mutagenic call", "setting": "[2]", "result": "inactive; negative"}, {"measurement": "mutagenic call", "setting": "Test System: AMES SALMONELLA TYPHIMURIUM, Strain/Indicator: TA100, Metabolic Activation: RAT, LIVER, S-9, PCB, Method: PREINCUBATION", "result": "active; positive"}]}, {"smiles": "O=C[C@H](NC(=O)N(CCCl)N=O)[C@@H](O)[C@H](O)[C@H](O)CO", "values": [{"measurement": "mutagenic call", "setting": "Test System: CHINESE HAMSTER V-79, Strain/Indicator: V-79/6-THIOGUANINE, Metabolic Activation: NONE, Method: STANDARD PLATE", "result": "active; positive"}]}, {"smiles": "Nc1c(Br)cc([N+](=O)[O-])cc1[N+](=O)[O-]", "values": [{"measurement": "mutagenic call", "setting": "Test System: AMES SALMONELLA TYPHIMURIUM, Strain/Indicator: TA98, Metabolic Activation: HAMSTER, LIVER, S-9, AROCLOR 1254 (10%), Method: PREINCUBATION", "result": "active; positive"}, {"measurement": "mutagenic call", "setting": "Test System: AMES SALMONELLA TYPHIMURIUM, Strain/Indicator: TA98, Metabolic Activation: HAMSTER, LIVER, S-9, AROCLOR 1254, Method: STANDARD PLATE", "result": "active; positive"}, {"measurement": "mutagenic call", "setting": "[6]", "result": "active; positive"}, {"measurement": "mutagenic call", "setting": "[1]", "result": "active; positive"}, {"measurement": "mutagenic call", "setting": "Test System: AMES SALMONELLA TYPHIMURIUM, Strain/Indicator: TA98, Metabolic Activation: RAT, LIVER, S-9, AROCLOR 1254 (10%), Method: PREINCUBATION", "result": "active; positive"}, {"measurement": "mutagenic call", "setting": "Test System: AMES SALMONELLA TYPHIMURIUM, Strain/Indicator: TA98, Metabolic Activation: RAT, LIVER, S-9, AROCLOR 1254, Method: STANDARD PLATE", "result": "active; positive"}, {"measurement": "mutagenic call", "setting": "Test System: AMES SALMONELLA TYPHIMURIUM, Strain/Indicator: TA98, Metabolic Activation: RAT, LIVER, S-9, KANECHLOR 500, Method: PREINCUBATION", "result": "active; positive"}, {"measurement": "mutagenic call", "setting": "Test System: AMES SALMONELLA TYPHIMURIUM, Strain/Indicator: TA100, Metabolic Activation: HAMSTER, LIVER, S-9, AROCLOR 1254 (10%), Method: PREINCUBATION", "result": "active; positive"}, {"measurement": "mutagenic call", "setting": "Test System: AMES SALMONELLA TYPHIMURIUM, Strain/Indicator: TA100, Metabolic Activation: HAMSTER, LIVER, S-9, AROCLOR 1254, Method: STANDARD PLATE", "result": "active; positive"}, {"measurement": "mutagenic call", "setting": "[2]", "result": "active; positive"}, {"measurement": "mutagenic call", "setting": "[3]", "result": "active; positive"}, {"measurement": "mutagenic call", "setting": "Test System: AMES SALMONELLA TYPHIMURIUM, Strain/Indicator: TA100, Metabolic Activation: RAT, LIVER, S-9, AROCLOR 1254 (10%), Method: PREINCUBATION", "result": "active; positive"}, {"measurement": "mutagenic call", "setting": "Test System: AMES SALMONELLA TYPHIMURIUM, Strain/Indicator: TA100, Metabolic Activation: RAT, LIVER, S-9, AROCLOR 1254, Method: STANDARD PLATE", "result": "active; positive"}, {"measurement": "mutagenic call", "setting": "Test System: AMES SALMONELLA TYPHIMURIUM, Strain/Indicator: TA100, Metabolic Activation: RAT, LIVER, S-9, KANECHLOR 500, Method: PREINCUBATION", "result": "active; positive"}, {"measurement": "mutagenic call", "setting": "Test System: AMES SALMONELLA TYPHIMURIUM, Strain/Indicator: TA1535, Metabolic Activation: HAMSTER, LIVER, S-9, AROCLOR 1254 (10%), Method: PREINCUBATION", "result": "inactive; negative"}, {"measurement": "mutagenic call", "setting": "Test System: AMES SALMONELLA TYPHIMURIUM, Strain/Indicator: TA1535, Metabolic Activation: NONE, Method: PREINCUBATION", "result": "inactive; negative"}, {"measurement": "mutagenic call", "setting": "Test System: AMES SALMONELLA TYPHIMURIUM, Strain/Indicator: TA1535, Metabolic Activation: RAT, LIVER, S-9, AROCLOR 1254 (10%), Method: PREINCUBATION", "result": "inactive; negative"}, {"measurement": "mutagenic call", "setting": "Test System: AMES SALMONELLA TYPHIMURIUM, Strain/Indicator: TA1537, Metabolic Activation: HAMSTER, LIVER, S-9, AROCLOR 1254 (10%), Method: PREINCUBATION", "result": "active; positive"}, {"measurement": "mutagenic call", "setting": "Test System: AMES SALMONELLA TYPHIMURIUM, Strain/Indicator: TA1537, Metabolic Activation: HAMSTER, LIVER, S-9, AROCLOR 1254, Method: STANDARD PLATE", "result": "active; positive"}, {"measurement": "mutagenic call", "setting": "Test System: AMES SALMONELLA TYPHIMURIUM, Strain/Indicator: TA1537, Metabolic Activation: NONE, Method: PREINCUBATION", "result": "active; positive"}, {"measurement": "mutagenic call", "setting": "Test System: AMES SALMONELLA TYPHIMURIUM, Strain/Indicator: TA1537, Metabolic Activation: NONE, Method: STANDARD PLATE", "result": "active; positive"}, {"measurement": "mutagenic call", "setting": "Test System: AMES SALMONELLA TYPHIMURIUM, Strain/Indicator: TA1537, Metabolic Activation: RAT, LIVER, S-9, AROCLOR 1254 (10%), Method: PREINCUBATION", "result": "active; positive"}, {"measurement": "mutagenic call", "setting": "Test System: AMES SALMONELLA TYPHIMURIUM, Strain/Indicator: TA1537, Metabolic Activation: RAT, LIVER, S-9, AROCLOR 1254, Method: STANDARD PLATE", "result": "active; positive"}, {"measurement": "mutagenic call", "setting": "Test System: AMES SALMONELLA TYPHIMURIUM, Strain/Indicator: TA1538, Metabolic Activation: HAMSTER, LIVER, S-9, AROCLOR 1254, Method: STANDARD PLATE", "result": "active; positive"}, {"measurement": "mutagenic call", "setting": "Test System: AMES SALMONELLA TYPHIMURIUM, Strain/Indicator: TA1538, Metabolic Activation: NONE, Method: STANDARD PLATE", "result": "active; positive"}, {"measurement": "mutagenic call", "setting": "Test System: AMES SALMONELLA TYPHIMURIUM, Strain/Indicator: TA1538, Metabolic Activation: RAT, LIVER, S-9, AROCLOR 1254, Method: STANDARD PLATE", "result": "active; positive"}, {"measurement": "mutagenic call", "setting": "[4]", "result": "active; positive. reevaluation of results: positive"}, {"measurement": "mutagenic call", "setting": "[5]", "result": "active; positive. reevaluation of results: positive"}]}]}
